One may read the viability, T/C as the ratio of treated to control. As usually defined, the IC50 is the concentration at which inhibition is half-maximal.

Molecules are shown by their SMILES. Several values for one entry are separate records, joined by “and”; a condition that tells them apart may be missing. Equal entries are not always repeated.

Drawing on PubChem BioAssay AID2060611 (Molecular Pharmacology Branch, DTP, NCI, 2025), this text covers viability, T/C and IC50 for five molecules.

For the experiment, the system named is 628569-122-R-J1-PDC complex spheroid viability. Put plainly: Anticancer human tumor 628569-122-R-J1-PDC patient-derived head and neck squamous carcinoma cell line growth inhibition [CLK]. To be noted: for viability, T/C: stronger effect = lower value; for IC50: curve of compound. The essentials:
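Multi-cell-type spheroids combined patient-derived tumor cells with HUVEC endothelial cells and human mesenchymal stem cells. Paired agents were dosed in half-log steps down from about clinical Cmax, or from 10 microM where Cmax was unknown.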
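Note: spheroids exposed to agents for seven days before readout.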
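Throughout, for viability, T/C: 100% = DMSO vehicle control viability.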

As to `CNC(=O)c1ccc(Nc2nc(OC3CCCC3)c3c(-c4ccc5nc(C)oc5c4)c[nH]c3n2)c(OC)c1`, the viability, T/C is, setting by setting: (compound 0.0316 µM) 95.7% [middle of 12 runs]; (compound 0.1 µM) 60.6% [middle of 12 runs]; (compound 0.316 µM) 54.9% [middle of 12 runs]; (compound 1 µM) 44.6% [middle of 12 runs]; (compound 3.16 µM) 40.7% [middle of 12 runs]; (compound 10 µM) 41.4% [middle of 12 runs].
Take `NC(=O)C(=Cn1cnc(-c2cc(C(F)(F)F)cc(C(F)(F)F)c2)n1)c1cncnc1`: the IC50 is 666 nM and 210 nM. For the same molecule, the viability, T/C (compound 0.00949 µM) was 71.1% and 74%. In addition, the viability, T/C (compound 0.03 µM) was 66.9% and 66.1%. For the same molecule, the viability, T/C (compound 0.0949 µM) was 52.1% and 56.7%. Also, the viability, T/C (compound 0.3 µM) was 63.8% and 49.3%. Moreover, under “compound 0.949 µM”, the viability, T/C was 44.3% and 35.1%. For the same molecule, the viability, T/C (compound 3 µM) was 41.7% and 33.4%.
For `CC(=O)O[C@H]1C(=O)[C@@]2(C)[C@H]([C@H](OC(=O)c3ccccc3)[C@]3(O)C[C@H](OC(=O)[C@H](O)[C@@H](NC(=O)c4ccccc4)c4ccccc4)C(C)=C1C3(C)C)[C@]1(OC(C)=O)CO[C@@H]1C[C@@H]2O`, the IC50 is under 31.6 nM. Also, under “compound 0.0316 µM”, the viability, T/C was 29.1% and 29.6%. Moreover, under “compound 0.1 µM”, the viability, T/C is 30.8% and 26.9%. Moreover, where the note is “compound 0.316 µM”, the viability, T/C was 27.4% and 26.9%. Further, the viability, T/C (compound 1 µM) is 27.5% and 24.6%. Also, the viability, T/C (compound 3.16 µM) is 27.2% and 33.9%. In addition, the viability, T/C (compound 10 µM) was 44.5% and 41.1%.
In the case of `COc1cccc2c1C(=O)c1c(O)c3c(c(O)c1C2=O)CC(O)(C(=O)CO)CC3OC1CC(N)C(O)C(C)O1` (centres undefined), the half-maximal inhibitory concentration (IC50) was 644 nM and 445 nM. Also, where the note is “compound 0.0316 µM”, the viability, T/C was 79.4% and 65.2%. The viability, T/C (compound 0.1 µM) is 51.3% and 43.7%. The viability, T/C (compound 0.316 µM) was 107% and 88.3%. Besides, the viability, T/C (compound 1 µM) was 31.9% and 12.3%. For the setting “compound 3.16 µM”, the viability, T/C was 12.3% and 14.2%. For the same molecule, the viability, T/C (compound 10 µM) was 4.08% and 10.9%.
Turning to `Nc1ccccc1NC(=O)c1ccc(CNC(=O)OCc2cccnc2)cc1`, the IC50 was > 10000 nM and 9090 nM. In addition, the viability, T/C (compound 0.0316 µM) is 91% and 99.9%. Also, the viability, T/C (compound 0.1 µM) is 87.9% and 94.8%. Further, the viability, T/C (compound 0.316 µM) is 123% and 125%. Moreover, the viability, T/C (compound 1 µM) was 151% and 140%. Where the note is “compound 3.16 µM”, the viability, T/C was 135% and 121%. The viability, T/C (compound 10 µM) was 52.9% and 43.9%.
